In patent US20240116845A1, “INDENE COMPOUNDS, PHARMACEUTICAL COMPOSITIONS THEREOF, AND THEIR THERAPEUTIC APPLICATIONS” (NucMito Pharmaceuticals Co., Ltd., priority 2021, published 2024):

Columns and labels:
Format in all cases: cell-based
[1] = tested on: A431 (epidermoid carcinoma); test: Antiproliferative activity, CCK-8 cell viability; conditions: Homo sapiens, A-431, 72 h, read-out: Inhibition of Cancerous Cells, A431; for inhibition at 3.3 µM: compound concentration of 3.3 μM; for inhibition at 10 µM: compound concentration of 10 μM; for inhibition at 30 µM: compound concentration of 30 μM
Procedure, shortened: (§1)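 Viability relative to DMSO controls came from CCK-8 absorbance at 450 nm after 72 h exposure at 37°C. Compound concentrations were 3.3, 10 or 30 μM, in DMEM plus 10% FBS. Results are categorised by inhibition level: at least 50%, 30 to under 50%, or under 30%.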

[2] = tested on: B16F10 (malignant melanoma); test: Antiproliferative activity, CCK-8 cell viability; conditions: Mus musculus, B16-F10, 72 h, read-out: Inhibition of Cancerous Cells, B16F10; for inhibition at 3.3 µM: compound concentration of 3.3 μM; for inhibition at 10 µM: compound concentration of 10 μM; for inhibition at 30 µM: compound concentration of 30 μM
Procedure, shortened: as §1

[3] = tested on: MDA-MB-231 (breast cancer); test: Antiproliferative activity, CCK-8 cell viability; conditions: Homo sapiens, 72 h, read-out: Inhibition of Cancerous Cells, MDA-MB-231; for inhibition at 3.3 µM: compound concentration of 3.3 μM; for inhibition at 10 µM: compound concentration of 10 μM; for inhibition at 30 µM: compound concentration of 30 μM
Procedure, shortened: as §1

[4] = tested on: SW480 (colon cancer); test: Antiproliferative activity, CCK-8 cell viability; conditions: Homo sapiens, 72 h, read-out: Inhibition of Cancerous Cells, SW480; for inhibition at 3.3 µM: compound concentration of 3.3 μM; for inhibition at 10 µM: compound concentration of 10 μM; for inhibition at 30 µM: compound concentration of 30 μM
Procedure, shortened: as §1

[5] = tested on: HeLa (cervical cancer); test: Antiproliferative activity, CCK-8 cell viability; conditions: Homo sapiens, 72 h, read-out: Inhibition of Cancerous Cells, HELA; for inhibition at 3.3 µM: compound concentration of 3.3 μM; for inhibition at 10 µM: compound concentration of 10 μM; for inhibition at 30 µM: compound concentration of 30 μM
[6] = tested on: HepG2 (liver cancer); test: Antiproliferative activity, CCK-8 cell viability; conditions: Homo sapiens, 72 h, read-out: Inhibition of Cancerous Cells, HepG2; for inhibition at 3.3 µM: compound concentration of 3.3 μM; for inhibition at 10 µM: compound concentration of 10 μM; for inhibition at 30 µM: compound concentration of 30 μM
Procedure, shortened: as §1

[7] = tested on: A549 (lung adenocarcinoma); test: Antiproliferative activity, CCK-8 cell viability; conditions: Homo sapiens, 72 h, read-out: Inhibition of Cancerous Cells, A549; for inhibition at 3.3 µM: compound concentration of 3.3 μM; for inhibition at 10 µM: compound concentration of 10 μM; for inhibition at 30 µM: compound concentration of 30 μM
[8] = tested on: alpha-smooth muscle actin (α-SMA); test: Inhibition of TGF-β induced expression of alpha-smooth muscle actin in CFSC cells (western blot); conditions: compound at 10 μM, TGF-β (10 ng/mL), 24 hours
Procedure, shortened: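 Read-out is percent decrease in α-SMA western-blot band intensity, β-actin also probed, relative to TGF-β-only cells. CFSC cells were co-treated for 24 h at 37 °C with 10 ng/mL TGF-β and 10 μM compound in serum-free DMEM.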

Compound	inhibition at 3.3 µM [1]	inhibition at 10 µM [1]	inhibition at 30 µM [1]	inhibition at 3.3 µM [2]	inhibition at 10 µM [2]	inhibition at 30 µM [2]	inhibition at 3.3 µM [3]	inhibition at 10 µM [3]	inhibition at 30 µM [3]	inhibition at 3.3 µM [4]	inhibition at 10 µM [4]	inhibition at 30 µM [4]	inhibition at 3.3 µM [5]	inhibition at 10 µM [5]	inhibition at 30 µM [5]	inhibition at 3.3 µM [6]	inhibition at 10 µM [6]	inhibition at 30 µM [6]	inhibition at 3.3 µM [7]	inhibition at 10 µM [7]	also measured
CC1=C(CC(=O)O)c2cc(F)cc(F)c2/C1=C\c1ccc(Oc2ccc(F)cc2)cc1 [Compound D15, 2-[(1Z)-5,7-Difluoro-2-methyl-1-({4-[4-fluorophenoxy]phenyl}methylidene)-1H-inden-3-yl]acetic acid]	< 30%	30 to 50%	≥ 50%	< 30%	30 to 50%	≥ 50%	≥ 50%	≥ 50%	≥ 50%	< 30%	≥ 50%	≥ 50%	< 30%	≥ 50%	≥ 50%	≥ 50%	≥ 50%	≥ 50%	30 to 50%	≥ 50%	inhibition at 30 µM [7]: ≥ 50%; inhibition at 10 µM [8]: ≥ 80%
CC1=C(CC(=O)O)c2c(F)cc(F)cc2/C1=C\c1ccc(Oc2ccc(F)cc2)cc1 [Compound D16, 2-[(1Z)-4,6-Difluoro-2-methyl-1-({4-[4-fluorophenoxy]phenyl}methylidene)-1H-inden-3-yl]acetic acid]	< 30%	30 to 50%	≥ 50%	< 30%	30 to 50%	≥ 50%	≥ 50%	≥ 50%	≥ 50%	< 30%	30 to 50%	≥ 50%	< 30%	30 to 50%	≥ 50%	30 to 50%	30 to 50%	≥ 50%	< 30%	30 to 50%	inhibition at 30 µM [7]: 30 to 50%; inhibition at 10 µM [8]: ≥ 80%
CC1=C(CC(=O)O)c2cc(F)ccc2/C1=C\c1ccccc1Oc1ccccc1 [Compound D19, 2-[(1Z)-5-Fluoro-1-(2-(phenoxy)benzylidene)-2-methyl-1H-inden-3-yl]-acetic acid]	≥ 50%	≥ 50%	≥ 50%	< 30%	30 to 50%	≥ 50%	< 30%	< 30%	≥ 50%	≥ 50%	≥ 50%	≥ 50%	30 to 50%	≥ 50%	≥ 50%	≥ 50%	≥ 50%	≥ 50%	30 to 50%	≥ 50%	inhibition at 30 µM [7]: ≥ 50%; inhibition at 10 µM [8]: < 30%
CC1=C(CC(=O)O)c2cc(F)cc(F)c2/C1=C\c1cccc(Oc2ccccc2)c1 [Compound D20, 2-[(1Z)-5,7-Difluoro-1-(3-(phenoxy)benzylidene)-2-methyl-1H-inden-3-yl]-acetic acid]	< 30%	< 30%	≥ 50%	30 to 50%	≥ 50%	≥ 50%	30 to 50%	≥ 50%	≥ 50%	≥ 50%	≥ 50%	≥ 50%	< 30%	< 30%	≥ 50%	≥ 50%	≥ 50%	≥ 50%	30 to 50%	≥ 50%	inhibition at 30 µM [7]: ≥ 50%; inhibition at 10 µM [8]: ≥ 80%
CC1=C(CC(=O)O)c2c(F)cc(F)cc2/C1=C\c1cccc(Oc2ccccc2)c1 [Compound D21, 2-[(1Z)-4,6-Difluoro-1-(3-(phenoxy)benzylidene)-2-methyl-1H-inden-3-yl]-acetic acid]	< 30%	30 to 50%	≥ 50%	≥ 50%	≥ 50%	≥ 50%	≥ 50%	≥ 50%	≥ 50%	30 to 50%	≥ 50%	≥ 50%	< 30%	≥ 50%	≥ 50%	30 to 50%	30 to 50%	≥ 50%	30 to 50%	≥ 50%	inhibition at 30 µM [7]: ≥ 50%; inhibition at 10 µM [8]: ≥ 80%
COc1ccc(Oc2cccc(/C=C3/C(C)=C(CC(=O)O)c4cc(F)ccc43)c2)cc1 [Compound D22, 2-[(1Z)-5-Fluoro-2-methyl-1-({3-[4-methoxyphenoxy]phenyl}methylidene)-1H-inden-3-yl]acetic acid]	< 30%	< 30%	≥ 50%	< 30%	≥ 50%	≥ 50%	≥ 50%	≥ 50%	≥ 50%	< 30%	30 to 50%	≥ 50%	30 to 50%	≥ 50%	≥ 50%	< 30%	30 to 50%	≥ 50%	30 to 50%	30 to 50%	inhibition at 30 µM [7]: ≥ 50%; inhibition at 10 µM [8]: ≥ 80%
CC1=C(CC(=O)O)c2cc(F)ccc2/C1=C\c1ccc(F)c(Oc2ccccc2)c1 [Compound D23, 2-[(1Z)-5-Fluoro-1-(4-fluoro-3-(phenoxy)benzylidene)-2-methyl-1H-inden-3-yl]-acetic acid]	< 30%	30 to 50%	≥ 50%	< 30%	≥ 50%	≥ 50%	≥ 50%	≥ 50%	≥ 50%	< 30%	30 to 50%	≥ 50%	< 30%	≥ 50%	≥ 50%	30 to 50%	≥ 50%	≥ 50%	< 30%	≥ 50%	inhibition at 30 µM [7]: ≥ 50%; inhibition at 10 µM [8]: ≥ 80%
CC1=C(CC(=O)O)c2cc(F)ccc2/C1=C\c1cccc(Oc2ccc(Cl)cc2)c1 [Compound D25, 2-[(1Z)-5-Fluoro-2-methyl-1-({3-[4-chlorophenoxy]phenyl}methylidene)-1H-inden-3-yl]acetic acid]	< 30%	< 30%	≥ 50%	30 to 50%	≥ 50%	≥ 50%	≥ 50%	≥ 50%	≥ 50%	≥ 50%	≥ 50%	≥ 50%	30 to 50%	≥ 50%	≥ 50%	30 to 50%	≥ 50%	≥ 50%	< 30%	30 to 50%	inhibition at 30 µM [7]: ≥ 50%; inhibition at 10 µM [8]: ≥ 80%
